# Measured values taken from article PMC8042770, “Odorant Receptors for Detecting Flowering Plant Cues Are Functionally Conserved across Moths and Butterflies” (Molecular Biology and Evolution, 2020).
# How the values were obtained:
# [1] = tested on: H. armigera moth antennae; test: Electroantennography (EAG), wild-type vs HarmOR42 knock-out moths; format: in vivo, Helicoverpa armigera; settings: single odorants, 1 μg
# Description: We next conducted a loss-of-function study by generating a HarmOR42-lacking H. armigera strain by CRISPR/Cas9 targeting the first coding exon. Homozygous mutants were obtained with a large segment deletion of 203 bp and a 6-bp nonhomologous insertion in the genome (fig. 6B), introducing a premature stop codon in the coding sequence. […] The most likely hypothesis is that HarmOR42 is not the major receptor for sensing this compound in H. armigera. As a control, we tested the response of male moths to the sex pheromone component Z11-16: Ald that is not a ligand of HarmOR42. As expected, we observed no difference between the EAG responses of mutant and wild-type moths to this compound.
# The antennae of 2- to 3-day-old virgin male and female moths were cut at the base of the flagellum. After removing the tip, one antenna was inserted between two glass electrodes filled with 0.1 M KCl solution. In each test, a 10-μl solution of each odorant was added onto a piece of filter paper (0.5 cm × 0.5 cm) and then inserted into a Pasteur pipette. About 100 ng/μl stock solutions of individual odorants and different doses of the mixture IAC were prepared with paraffin oil. A continuous airflow of 30 ml/s was produced by a stimulus controller (CS-55, Syntech, Kirchzarten, Germany). Odor stimulation was controlled by a puff of purified air (0.2 s at 10 ml/s airflow) from the CS-55. EAG signals were amplified with a 10× AC/DC headstage preamplifier (Syntech) and further acquired with an Intelligent Data Acquisition Controller (IDAC-4-USB, Syntech) ([Cao et al. 2016]). The signals were recorded, monitored, and analyzed using Syntech EAG-software (Syntech, Germany). The EAG response values for each compound were calculated by subtracting the value of the same antennae corresponding to a solvent blank of paraffin oil.
# HarmOR59 = HarmOR59 (Helicoverpa armigera, UniProt A0A7T3KAU6); test: Xenopus oocyte two-electrode voltage clamp, HarmOR59 + Orco; format: cell-based
# Protocol: In order to expand our analysis on the response properties of HarmORs, we conducted dose–response analyses for the 28 functional HarmORs. […] Six HarmORs (OR3, 22, 48, 50, 56, and 66) could not be activated by any ligand at 10^−5 M. For the other 22 HarmORs, dose–response curves were generated and EC50 values of their major ligands were calculated (fig. 2A and supplementary table S2, Supplementary Material online). The HarmOR repertoire was highly efficient in terpene detection, since the lowest EC50 values were obtained for such compounds. Many of these terpenes have been proposed to be defensive chemicals of plants. […] DMNT is also one of the oviposition deterring compounds found in larval frass of some Lepidoptera species such as S. littoralis ([Anderson et al. 1993]).
# (§1) Functional characterization of individual ORs was performed by heterologous expression in Xenopus oocytes combined with a two-electrode voltage-clamp system ([Wang et al. 2010]). Briefly, the full-length gene of each OR and Orco were subcloned into the eukaryotic expression vector pT7TS. cRNAs were generated from linearized expression vectors using the mMESSAGE mMACHINE T7 kit (Ambion, Austin, TX). Then, the cRNA mixture of ORx and Orco (27.6 ng each) was injected (Nanoliter 2010, WPI Inc., Sarasota, FL) into oocytes (stage V–VII). The respective Orcos of different species were used for functional studies of OR42 orthologs except for the four butterfly species (V. tameamea, P. xuthus, D. plexippus, and P. rapae), in which we used the Orco from P. xuthus. After incubation in nutrient solution at 18 °C for 3–5 days, the response profile of each oocyte to multiple plant odorants was recorded via a two-electrode voltage clamp (OC-725C oocyte clamp, Warner Instruments, Hamden, CT) at a holding potential of −80 mV. Data were acquired by using a Digidata 1440 A and were analyzed by pCLAMP 10.2 software (Axon Instruments Inc., Union City, CA).
# Stock solutions of each odorant were prepared at 1 M using DMSO as a solvent, and each odorant was diluted in 1× Ringer’s solution to the indicated concentrations for electrophysiological recording. For functional screening of each HarmOR, a panel of 67 odorants belonging to three types of chemical classes: terpenes, aromatics, and aliphatics (short-chain fatty acid) were used (supplementary table S1, Supplementary Material online). For functional studies of OR42 orthologs from different species, six odorants including PAA, benzaldehyde, (E)-2-hexen-1-al, cinnamaldehyde, 2-phenylethanol, and heptanal were used.
# RnubOR13 = test: Xenopus oocyte voltage clamp of RnubOR13; format: cell-based, Rhyacophila nubila; settings: test panel
# Description: We also examined the response profile of EsemOR19 from E. semipurpurella, an OR that falls close to the HarmOR42-defined clade but that is not considered as a HarmOR42 ortholog. […] We also characterized the function of RnubOR13 from R. nubila (Trichoptera), a species from a sister order of Lepidoptera. […] Unfortunately, the putative E. semipurpurella OR that would consist of EsemOR34 + 35 and that falls at the base of the HarmOR42 clade could not be tested as it is incomplete.
# as §1, with “Then, the cRNA mixture of ORx and Orco (27.6 ng each) was injected (Nanoliter 2010, WPI Inc., Sarasota, FL) into oocytes (stage V–VII). The respective Orcos of different species were used for functional studies of OR42 orthologs except for the four butterfly species (V. tameamea, P. xuthus, D. plexippus, and P. rapae), in which we used the Orco from P. xuthus.” left out, “CA). […]” for “CA).”
# [2] = tested on: H. armigera third instar larvae; test: Petri dish choice assay, third instar larvae; format: in vivo, Helicoverpa armigera
# Protocol: Our results provide strong evidence that PAA, via its detection by HarmOR42, is an important host plant cue in both larval and adult stages of H. armigera.
# For assessing larval behavior to PAA, the experiments were performed in closed plastic Petri dishes of 15 cm diameter (fig. 6D) as in [Poivet et al. (2013)] with some modifications. To ascertain the choice zone, we tracked the behavior trajectory of larvae to a regular diet. A piece of regular diet nutrition was placed at one of the opposite ends of the dish along the diameter. Ten third instar larvae were placed in the middle of the dish. The location of larvae was marked every 10 min for 1 h. Four replications were performed. Most of the larvae made choices within 40 min, so this time point was selected for choice statistics. For the choice behavior test, PAA and paraffin oil (solvent) were respectively added onto a piece of 1 × 1 cm filter paper and the papers were arranged at opposite ends. The two-choice zones were delineated by 4-cm radius half circles centered at each of the filter papers. The choice indexes (CI) were calculated using the formula: CI = (P − C)/T, where P represents the number of larvae that entered the PAA choice zone, C represents the number of larvae that entered the solvent zone, and T represents the total number of larvae in the test (ten larvae). We first determined the efficient test dose using three different dilutions of PAA (0.1, 1, and 10 μg) against wild-type larvae. The CI of larvae to PAA was compared with a blank (solvent on each side of the dish). […] Therefore, we used 1 μg of PAA to test the choice behavior of mutant larvae. Ten replicates were performed for each test.
# Sequence of HarmOR59 (A0A7T3KAU6 entry or part of it): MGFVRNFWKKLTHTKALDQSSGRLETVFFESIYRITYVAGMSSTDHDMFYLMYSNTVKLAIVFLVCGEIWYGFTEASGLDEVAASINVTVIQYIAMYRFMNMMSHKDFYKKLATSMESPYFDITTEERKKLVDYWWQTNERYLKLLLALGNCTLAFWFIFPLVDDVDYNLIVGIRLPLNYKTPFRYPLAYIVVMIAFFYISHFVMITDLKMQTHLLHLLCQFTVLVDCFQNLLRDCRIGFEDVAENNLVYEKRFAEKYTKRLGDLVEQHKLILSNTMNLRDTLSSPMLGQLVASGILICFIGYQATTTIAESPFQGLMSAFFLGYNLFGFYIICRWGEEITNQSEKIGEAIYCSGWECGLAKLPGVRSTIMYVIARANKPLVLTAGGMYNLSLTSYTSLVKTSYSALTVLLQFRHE
smiles,measurement,setting,value
O=CCc1ccccc1 [Phenylacetaldehyde],EAG response of HarmOR42 knock-out mutants compared with wild-type moths,[1],significantly decreased
same,EC50,HarmOR59,6.97 µM
same,response of RnubOR13,RnubOR13,activated neither
same,preference of HarmOR42 knock-out mutant larvae,"[2]; third instar, knock-out, 1 μg",lost their preference
same,attractive effect on wild-type larvae,"[2]; third instar, wild type, 1 μg, 40 min",significantly attracted
same,dose giving the most positive choice,"[2]; wild-type larvae, 0.1, 1 and 10 μg tested",1 µg
